In US10744128B2, “6-(5-membered heteroaryl)isoquinolin-3-yl-(5-membered heteroaryl) carboxamides and preparation and use thereof” (Samumed, LLC, priority 2017, dated 2020):
Like-named read-outs stand apart in the source and are kept apart here.

Experiments:
[1] = molecular target: recombinant DYRK1A kinase (Homo sapiens (Human), UniProt Q13627); test: DYRK1A kinase assay (Ser/Thr 18 peptide Z-lyte, FRET)
[2] = tested on: SW480 colon carcinoma cells; test: Cell viability assay (CellTiter-Glo) in SW480 cells; assay type: cell-based, human; conditions: Homo sapiens, 96 h, four days
Experimental: SW480 colon carcinoma cells were transduced with a lentiviral vector expressing luciferase with a human Sp5 promoter consisting of a sequence of eight TCF/LEF binding sites. SW480 cells stably expressing the Sp5-Luc reporter gene and a hygromycin resistance gene were selected by treatment with 150 µg/mL of hygromycin for 7 days. These stably transduced SW480 cells were expanded in cell culture and used for all further screening activities.
For the Cell Viability Assays, the cells were plated at 2,000 cells/well in 384-well plates with a DMEM medium containing 1% fetal bovine serum, and 1% Penicillin-Streptomycin and incubated for […] at 37° C. and 5% CO2. Eight replicates of DMSO-treated cells served as controls and cells treated with compound were performed in duplicate.
After incubation, 10 μL of CellTiter-Glo (Promega) was added to each well allowed to incubate for approximately 12 minutes. This reagent “results in cell lysis and generation of a luminescent signal proportional to the amount of ATP present. The amount of ATP is directly proportional to the number of cells present in culture, in agreement with previous reports. The CellTiter-Glo® Assay generates a “glow-type” luminescent signal, produced by the luciferase reaction (Promega.com)”.

IL-6 = IL-6 inhibition in LPS-stimulated human peripheral blood mononuclear cells (HTRF); assay type: cell-based; conditions: Homo sapiens, PBMC; for EC50: huPBMCs, LPS 50 ng/mL, 22 hours, IL-6 HTRF; for inhibition at 10 µM: read-out: percent inhibition at 10 μM
Experimental: Fresh Normal PB MNC (Catalog # PB001, AllCells, Alameda, Calif.) were shipped overnight at 4° C. and resuspended in Roswell Park Memorial Institute (RPMI) 1640 Medium, with GlutaMAX Supplement (Catalog #61870127, ThermoFisher Scientific, Waltham, Mass.) supplemented with 1% Penicillin-Streptomycin (Catalog #15140163, ThermoFisher Scientific, Waltham, Mass.) and 1% fetal bovine serum (FBS) (Catalog #16140089, ThermoFisher Scientific, Waltham, Mass.) assay media.
Fresh normal human peripheral blood mononuclear cells (huPBMCs) were resuspended in 1% FBS-RPMI assay media with 1% Penicillin-Streptomycin 1% to a cell concentration of 1×10e6 cells/mL. […] 50 ng/mL of Lipopolysaccharides from Escherichia coli 0111:B4 (Catalog #L5293-2ML, Sigma-Aldrich, St. Louis, Mo.) was added after 2 hours and cells were incubated for another 22 hours at 37° C.-5% CO2. After 22 hour incubation, a mixture of anti-IL6 XL665 and anti-IL-6 Cryptate diluted in reconstitution buffer (Catalog #62IL6PEC, Cisbio Inc., Bedford, Mass.) was added to each well. Following incubation for 3 hours at room temperature, Homogeneous Time-Resolved Fluorescence (HTRF) was measured using the Envision (Perkin Elmer, Shelton, Conn.) at 665 nm and […]. The ratio of fluorescence at 665 nm to 620 nm was used as a readout for IL-6 quantification. All samples were processed in duplicate. Readings were normalized to DMSO treated cells and normalized activities were utilized for EC50 calculations. EC50 was determined using software generated by Dotmatics Limited (Windhill Bishops Stortford Herts, UK) using the Levenberg-Marquardt 4 parameter fitting procedure with finite different gradients.

recombinant GSK3β kinase = recombinant GSK3β kinase (Homo sapiens (Human), UniProt P49841); test: GSK3β kinase assay (Ser/Thr 09 peptide Z-lyte, FRET); assay type: biochemical
Chain of recombinant GSK3β kinase (P49841 whole entry): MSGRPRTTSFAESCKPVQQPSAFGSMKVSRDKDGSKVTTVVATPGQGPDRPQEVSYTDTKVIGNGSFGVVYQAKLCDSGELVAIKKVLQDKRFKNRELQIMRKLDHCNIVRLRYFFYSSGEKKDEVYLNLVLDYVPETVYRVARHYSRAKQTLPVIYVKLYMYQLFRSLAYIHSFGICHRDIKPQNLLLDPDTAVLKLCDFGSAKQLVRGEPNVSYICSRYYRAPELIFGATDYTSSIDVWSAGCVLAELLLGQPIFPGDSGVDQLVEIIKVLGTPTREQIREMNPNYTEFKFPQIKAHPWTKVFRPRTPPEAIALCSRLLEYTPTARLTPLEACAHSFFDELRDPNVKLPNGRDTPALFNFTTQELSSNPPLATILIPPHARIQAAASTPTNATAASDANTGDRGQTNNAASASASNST

[3] = tested on: Wnt-responsive promoter (Sp5-Luc reporter) in SW480 colon carcinoma cells; test: Sp5-Luc reporter gene screening assay for Wnt activity in SW480 cells; assay type: cell-based, human; conditions: Homo sapiens, 36 to 48 hours, luminescence
From the text: The screening assay for Wnt activity is described as follows. Reporter cell lines can be generated by stably transducing cancer cell lines (e.g., colon cancer) or primary cells (e.g., IEC-6 intestinal cells) with a lentiviral construct that includes a Wnt-responsive promoter driving expression of the firefly luciferase gene.
SW480 colon carcinoma cells were transduced with a lentiviral vector expressing luciferase with a human Sp5 promoter consisting of a sequence of eight TCF/LEF binding sites. SW480 cells stably expressing the Sp5-Luc reporter gene and a hygromycin resistance gene were selected by treatment with 150 μg/mL of hygromycin for 7 days. These stably transduced SW480 cells were expanded in cell culture and used for all further screening activities. […] For Sp5-Luc reporter gene assays, the cells were plated at 4,000 cells/well in 384-well plates with a DMEM medium containing 1% fetal bovine serum, and 1% Penicillin-Streptomycin and incubated for 36 to 48 hours at 37° C. and 5% CO2. Following incubation, 15 μl of BriteLite Plus luminescence reagent (Perkin Elmer) was added to each well of the 384-well assay plates. The plates were placed on an orbital shaker for 2 min and then luminescence was quantified using the Envision (Perkin Elmer) plate reader. Readings were normalized to DMSO only treated cells, and normalized activities were utilized for EC50 calculations using the dose-response log (inhibitor) vs. response −variable slope (four parameters) nonlinear regression feature available in GraphPad Prism 5.0 (or Dotmatics).

[4] = tested on: primary human fibroblasts derived from IPF patients (LL29 cells), α-smooth muscle actin; test: Inhibition of fibrotic process: αSMA in TGF-β1 treated LL29 fibroblasts; assay type: cell-based; conditions: Homo sapiens, Fibroblast; for EC50: 96 h, LL29 cells, TGF-β1 20 ng/mL, 4 days, % cells positive for αSMA; for inhibition at 10 µM: read-out: percent inhibition at 10 μM
Experimental: Representative compounds were screened using primary human fibroblasts (derived from IPF patients) treated with TGF-β1 to determine their ability to inhibit the fibrotic process.
LL29 cells were plated at 1,500 cells/well in 70 μL/well F12 medium supplemented with 1% Fetal Bovine Serum. […] Wells treated with TGF-β1 and containing DMSO were used as positive control, and cells with only DMSO were negative control. […] Following incubation for 4 days, SYTOX green nucleic acid stain (Life Technologies [Thermo Fisher Scientific]) was added to the wells at a final concentration of 1 μM and incubated at room temperature for 30 min.

[5] = DYRK1A kinase, 30 μM ATP, one hour, method calls values IC50
[6] = GSK3β kinase, 46 μM ATP, one hour, method calls values IC50

Row | SMILES | EC50 [1, 5] [nM] | EC50 [2] [nM] | EC50 (IL-6) [nM] | EC50 (recombinant GSK3β kinase; [6]) [nM] | EC50 [3] [nM] | EC50 [1] [nM] | EC50 (recombinant GSK3β kinase) [nM] | EC50 [4] [nM] | inhibition at 10 µM (IL-6) [%] | inhibition at 10 µM [4] [%]
1 | CC(C)N1CCC(c2nc(C(=O)Nc3cc4cc(-c5cn(C)nn5)ccc4cn3)co2)CC1 [Compound 38, 2-(1-Isopropylpiperidin-4-yl)-N-(6-(1-methyl-1H-1,2,3-triazol-4-yl)isoquinolin-3-yl)oxazole-4-carboxamide] | 180 | 1630 | > 10000 | 1350 | 555 | – | – | > 10000 | 5.3 | 3.9
2 | Cn1cc(C(=O)Nc2cc3cc(-c4cncn4C)ccc3cn2)cn1 [Compound 40, 1-Methyl-N-(6-(1-methyl-1H-imidazol-5-yl)isoquinolin-3-yl)-1H-pyrazole-4-carboxamide] | 4 | 442 | 751 | 1830 | 109 | – | – | > 10000 | – | 23.2
3 | CC(C)n1cc(C(=O)Nc2cc3cc(-c4cncn4C)ccc3cn2)cn1 [Compound 42, 1-Isopropyl-N-(6-(1-methyl-1H-imidazol-5-yl)isoquinolin-3-yl)-1H-pyrazole-4-carboxamide] | 23 | 999 | > 10000 | 9990 | 602 | – | – | 2500 | 37.1 | –
4 | [2H]c1nc(NC(=O)c2cnn(C(C)C)c2)cc2cc(-c3cncn3C)ccc12 [Compound 43, 1-Isopropyl-N-(6-(1-methyl-1H-imidazol-5-yl)isoquinolin-3-yl-1-d)-1H-pyrazole-4-carboxamide] | – | 83 | 251 | – | 48 | 2 | 3070 | 151 | – | –
5 | Cn1ccc(C(=O)Nc2cc3cc(-c4cncn4C)ccc3cn2)n1 [Compound 46, 1-Methyl-N-(6-(1-methyl-1H-imidazol-5-yl)isoquinolin-3-yl)-1H-pyrazole-3-carboxamide] | 5 | 2180 | > 10000 | 1770 | 1250 | – | – | 1530 | 46.1 | –
6 | Cn1cc(CC(=O)Nc2cc3cc(-c4cncn4C)ccc3cn2)cn1 [Compound 47, N-(6-(1-methyl-1H-imidazol-5-yl)isoquinolin-3-yl)-2-(1-methyl-1H-pyrazol-4-yl)acetamide] | 3 | 607 | 388 | 29 | 556 | – | – | 94 | – | –

Continued, in another order:

Row | EC50 [1, 5] [nM] | EC50 [2] [nM] | EC50 (IL-6) [nM] | EC50 (recombinant GSK3β kinase; [6]) [nM] | EC50 [3] [nM] | EC50 [1] [nM] | EC50 (recombinant GSK3β kinase) [nM] | SMILES | EC50 [4] [nM] | inhibition at 10 µM (IL-6) [%] | inhibition at 10 µM [4] [%]
7 | 10 | 306 | 2110 | 295 | 111 | – | – | CC(C)N1CCC(n2cc(C(=O)Nc3cc4cc(-c5cn(C)nn5)ccc4cn3)nn2)CC1 [Compound 35, 1-(1-Isopropylpiperidin-4-yl)-N-(6-(1-methyl-1H-1,2,3-triazol-4-yl)isoquinolin-3-yl)-1H-1,2,3-triazole-4-carboxamide] | 635 | – | –
8 | 19 | 399 | 2540 | 458 | 114 | – | – | Cn1cc(-c2ccc3cnc(NC(=O)c4coc(C5CCNCC5)n4)cc3c2)nn1 [Compound 36, N-(6-(1-Methyl-1H-1,2,3-triazol-4-yl)isoquinolin-3-yl)-2-(piperidin-4-yl) oxazole-4-carboxamide] | 596 | – | –
9 | 24 | 179 | 2660 | 342 | 105 | – | – | CN1CCC(c2nc(C(=O)Nc3cc4cc(-c5cn(C)nn5)ccc4cn3)co2)CC1 [Compound 37, N-(6-(1-Methyl-1H-1,2,3-triazol-4-yl)isoquinolin-3-yl)-2-(1-methylpiperidin-4-yl)oxazole-4-carboxamide] | 248 | – | –
10 | 2 | 102 | 618 | 850 | 37 | – | – | CCn1cc(C(=O)Nc2cc3cc(-c4cncn4C)ccc3cn2)cn1 [Compound 41, 1-Ethyl-N-(6-(1-methyl-1H-imidazol-5-yl)isoquinolin-3-yl)-1H-pyrazole-4-carboxamide] | 122 | – | –
11 | 1 | 94 | 356 | 1660 | 37 | – | – | Cn1cncc1-c1ccc2cnc(NC(=O)c3cnn(C4CC4)c3)cc2c1 [Compound 44, 1-Cyclopropyl-N-(6-(1-methyl-1H-imidazol-5-yl)isoquinolin-3-yl)-1H-pyrazole-4-carboxamide] | 115 | – | –
12 | 1 | 111 | 414 | 1190 | 55 | – | – | CC(C)Cn1cc(C(=O)Nc2cc3cc(-c4cncn4C)ccc3cn2)cn1 [Compound 45, 1-Isobutyl-N-(6-(1-methyl-1H-imidazol-5-yl)isoquinolin-3-yl)-1H-pyrazole-4-carboxamide] | 88 | – | –
13 | 18 | 3550 | > 10000 | 3380 | 1160 | – | – | Cn1cnc(C(=O)Nc2cc3cc(-c4cncn4C)ccc3cn2)c1 [Compound 48, 1-Methyl-N-(6-(1-methyl-1H-imidazol-5-yl)isoquinolin-3-yl)-1H-imidazole-4-carboxamide] | > 10000 | 17.8 | 6.7
14 | 2 | 73 | 285 | 1340 | 35 | – | – | CC(C)n1cnc(C(=O)Nc2cc3cc(-c4cncn4C)ccc3cn2)c1 [Compound 49, 1-Isopropyl-N-(6-(1-methyl-1H-imidazol-5-yl)isoquinolin-3-yl)-1H-imidazole-4-carboxamide] | 86 | – | –
15 | 21 | 833 | 3280 | 4490 | 100 | – | – | Cn1cncc1-c1ccc2cnc(NC(=O)c3cn(C4CCOCC4)cn3)cc2c1 [Compound 50, N-(6-(1-Methyl-1H-imidazol-5-yl)isoquinolin-3-yl)-1-(tetrahydro-2H-pyran-4-yl)-1H-imidazole-4-carboxamide] | 1180 | – | –
